Tests used:
[1] = target: GDP-bound HRAS wild-type protein (Homo sapiens, UniProt P01112); experiment: Binding to HRAS by surface plasmon resonance (SPR), Single Cycle Kinetics
[2] = target: GDP-bound NRAS wild-type protein (Homo sapiens, UniProt P01111); experiment: Binding to NRAS by surface plasmon resonance (SPR), Single Cycle Kinetics
[3] = KD ratio, GDP-bound HRAS wild-type vs GDP-bound KRAS wild-type, SPR
[4] = KD ratio, GDP-bound NRAS wild-type vs GDP-bound KRAS wild-type, SPR

GDP-bound NRAS wild-type protein, sequence (P01111 whole entry): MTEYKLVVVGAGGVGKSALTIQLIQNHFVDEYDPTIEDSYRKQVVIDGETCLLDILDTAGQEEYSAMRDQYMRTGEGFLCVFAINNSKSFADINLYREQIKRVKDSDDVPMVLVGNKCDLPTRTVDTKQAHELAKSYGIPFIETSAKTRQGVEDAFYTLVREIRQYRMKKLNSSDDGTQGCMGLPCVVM
GDP-bound HRAS wild-type protein, sequence (P01112 whole entry): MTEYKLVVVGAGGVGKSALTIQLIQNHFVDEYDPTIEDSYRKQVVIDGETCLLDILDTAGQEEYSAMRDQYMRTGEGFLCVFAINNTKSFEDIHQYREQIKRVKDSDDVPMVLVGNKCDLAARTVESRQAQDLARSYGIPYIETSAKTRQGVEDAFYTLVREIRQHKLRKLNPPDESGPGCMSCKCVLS

Row | SMILES | HRAS/KRAS (ratio of KD value with respect to HRAS to KD value with respect to KRAS) [1, 3] | NRAS/KRAS (ratio of KD value with respect to NRAS to KD value with respect to KRAS) [2, 4] | also measured
1 | CCO[C@@H]1C[C@H]2C(=O)NC3(CCC3)C(=O)N(C)[C@@H](C3CCCC3)C(=O)N(C)[C@H](C(=O)N3CCCC3)CC(=O)N(C)[C@@H](CC)C(=O)N[C@@H]([C@@H](C)CC)C(=O)N(C)CC(=O)N(C)[C@H]3C/C=C\CCN(C3=O)[C@@H](Cc3ccc(C(F)(F)F)cc3)C(=O)N(C)CC(=O)N[C@@H](CCc3cc(F)c(C(F)(F)F)c(F)c3)C(=O)N2C1 [PP1090] | A (a compound having 10 or more and less than 20 is denoted as A) | AA (a compound having 20 or more is denoted as AA) | 
2 | CCO[C@@H]1C[C@H]2C(=O)NC3(CCC3)C(=O)N(C)[C@@H](C3CCCC3)C(=O)N(C)[C@H](C(=O)N3CCOCC3)CC(=O)N(C)[C@@H](Cc3ccccc3Cl)C(=O)N[C@@H]([C@@H](C)CC)C(=O)N(C)CC(=O)N(C)[C@H]3CCCCCN(C3=O)[C@@H](Cc3ccc(C(F)(F)F)cc3)C(=O)N(C)CC(=O)N[C@@H](CCc3cc(F)c(C(F)(F)F)c(F)c3)C(=O)N2C1 [PP0929] | B (a compound having 3 or more and less than 10 is denoted as B) | A (a compound having 10 or more and less than 20 is denoted as A) | 
3 | CCCN(C)C(=O)[C@@H]1CC(=O)N(C)[C@@H](CC(F)F)C(=O)N[C@@H]([C@@H](C)CC)C(=O)N(C)CC(=O)N(C)[C@H]2C/C=C\CCN(C2=O)[C@@H](Cc2ccc(C(F)(F)F)cc2)C(=O)N(C)CC(=O)N[C@@H](CCc2cc(F)c(C(F)(F)F)c(F)c2)C(=O)N2C[C@H](OCC)C[C@H]2C(=O)NC2(CC(F)(F)C2)C(=O)N(C)[C@@H](C2CCCC2)C(=O)N1C [PP1733] |  |  | HRAS/KRAS (ratio of KD value for HRAS to KD value for KRAS) [1, 3]: A (a compound having 10 or more and less than 20 is denoted as A); NRAS/KRAS (ratio of KD value for NRAS to KD value for KRAS) [2, 4]: A (a compound having 10 or more and less than 20 is denoted as A)
4 | CCO[C@@H]1C[C@H]2C(=O)NC3(CCC3)C(=O)N(C)[C@@H](C3CCCC3)C(=O)N(C)[C@H](C(=O)N3CCOCC3)CC(=O)N(C)[C@@H](CC(C)C)C(=O)N[C@@H](C3CC(F)(F)C3)C(=O)N(C)CC(=O)N(C)[C@H]3CCCCCN(C3=O)[C@@H](Cc3ccc(C(F)(F)F)cc3)C(=O)N(C)CC(=O)N[C@@H](CCc3cc(F)c(C(F)(F)F)c(F)c3)C(=O)N2C1 [PP0816] | B (a compound having 3 or more and less than 10 is denoted as B) | A (a compound having 10 or more and less than 20 is denoted as A) | 
5 | CC[C@H](C)[C@@H]1NC(=O)[C@H](CC)N(C)C(=O)C[C@@H](C(=O)N(C)C)N(C)C(=O)[C@H](C2CCCC2)N(C)C(=O)C2(CCC2)NC(=O)[C@@H]2C[C@H](C)CN2C(=O)[C@H](CCc2cc(F)c(C(F)(F)F)c(F)c2)NC(=O)CN(C)C(=O)[C@H](Cc2ccc(C(F)(F)F)cc2)N2CC/C=C\C[C@@H](C2=O)N(C)C(=O)CN(C)C1=O [PP1134] | B (a compound having 3 or more and less than 10 is denoted as B) | A (a compound having 10 or more and less than 20 is denoted as A) | 
6 | CC[C@H](C)[C@@H]1NC(=O)[C@H](COC)N(C)C(=O)C[C@@H](C(=O)N(C)C)N(C)C(=O)[C@H](C2CCCCC2)N(C)C(=O)C2(CC(C)(C)C2)NC(=O)[C@@H]2C[C@@H](OC(C)C)CN2C(=O)[C@H](CCc2cc(F)c(C(F)(F)F)c(F)c2)NC(=O)CN(C)C(=O)[C@H](Cc2ccc(C)cc2)N2CC/C=C\C[C@@H](C2=O)N(C)C(=O)CN(C)C1=O [PP2660] |  |  | HRAS/KRAS (ratio of KD value with respect to GDP-bound HRAS wild-type protein to KD value with respect to KRAS) ([1]; KD ratio HRAS/KRAS, class symbols): A (a compound having 10 or more and less than 20 is denoted as A); NRAS/KRAS (ratio of KD value with respect to GDP-bound NRAS wild-type protein to KD value with respect to KRAS) ([2]; KD ratio NRAS/KRAS, class symbols): A (a compound having 10 or more and less than 20 is denoted as A)
7 | CCCOC[C@H]1C(=O)N[C@@H]([C@@H](C)CC)C(=O)N(C)CC(=O)N(C)[C@H]2C/C=C\CCN(C2=O)[C@@H](Cc2ccc(C)cc2)C(=O)N(C)CC(=O)N[C@@H](CCc2ccc(C(F)(F)F)c(OC)c2)C(=O)N2C[C@@H](C)C[C@H]2C(=O)N(C)C2(CCC2)C(=O)N(C)[C@@H](C2CCCC2)C(=O)N(C)[C@H](C(=O)N(C)C)CC(=O)N1C [PP2365] |  |  | HRAS/KRAS (ratio of KD value with respect to HRAS to KD value with respect to KRAS) ([1]; SPR, GDP-bound HRAS wild-type vs GDP-bound KRAS wild-type): B (a compound having 3 or more and less than 10 is denoted as B); NRAS/KRAS (ratio of KD value with respect to NRAS to KD value with respect to KRAS) ([2]; SPR, GDP-bound NRAS wild-type vs GDP-bound KRAS wild-type): A (a compound having 10 or more and less than 20 is denoted as A)
